Results from article PMC4673829 (Nature Communications, 2015).
Like-named read-outs stand apart in the source and are kept apart here.

Experiments:
JARID1A PHD3 domain = molecular target: T1, JARID1A PHD3 domain (Homo sapiens, UniProt P29375); experiment: ITC binding to JARID1A PHD3 domain
T1 construct: made in house; host or cells: Escherichia coli Rosetta BL21 DE3 pLysS
T1 sequence (P29375 1607-1661 limits assumed): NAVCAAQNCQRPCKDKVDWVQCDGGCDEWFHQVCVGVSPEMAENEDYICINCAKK
Excerpt: (§1) We use isothermal titration calorimetry (ITC) to obtain full thermodynamic descriptions for binding of H3K4me3, H3C4me3 and H3G4 peptides to five representative reader proteins that specifically recognize H3K4me3 (the PHD zinc fingers of JARID1A, BPTF, TAF3 and the tudor domains of the Royal family of SGF29 and JMJD2A) (Table 1 and Fig. 1b,c)[19][20][21][22][23]. The five reader pockets are different in the aromatic cage composition and architecture, which allows us to examine the effect of individual constitution of the aromatic cage on binding differences.
(§2) Reader proteins were prepared and purified following the previously reported procedure. Briefly, the reader domains of BPTF, JMJD2A, JARID1A, TAF3 and SGF29 were expressed in Escherichia coli Rosetta BL21 DE3 pLysS hosts, using Terrific Broth medium. The bacteria were cultured to OD600 ∼0.6 at 37 °C after which they were induced with 0.5 mM isopropyl-b-D-thiogalactoside overnight at 16 °C. Proteins were purified using Ni-NTA beads for 6xHis-tagged proteins or glutathione sepharose beads for GST tagged proteins, respectively. After purification, the 6xHis tag was cleaved from JMJD2A and SGF29 using TEV-protease and the GST tag was cleaved from TAF3 using thrombin. Protein were purified by size-exclusion chromatography using a Superdex 75 column (GE Healthcare). SGF29 was eluted in 25 mM Tris, 50 mM NaCl, 1 mM dithiothreitol at pH 7.5; JMJD2A and TAF3 were eluted in 50 mM Tris at pH 7.5; BPTF and JARID1A were eluted in 50 mM Tris, 20 mM NaCl at pH 7.5. All proteins were made filter sterile and stored at 4 °C until further use.
(§3) Concentrations of histone peptides were measured by ultraviolet spectroscopy at 205 nm, following the previously reported method. All histone peptides were titrated to the same batch of reader proteins. […] Heats of dilution for histone peptides were determined in control experiments, and were subtracted from the titration binding data before curve fitting. […] For each reader–histone system, 5–7 independent ITC experiments were carried out. […]

TAF3 PHD domain = molecular target: T2, TAF3 PHD domain (Homo sapiens, UniProt Q5VWG9); experiment: ITC binding to TAF3 PHD domain; conditions: 5–7 independent experiments
T2 sequence (Q5VWG9 857-924): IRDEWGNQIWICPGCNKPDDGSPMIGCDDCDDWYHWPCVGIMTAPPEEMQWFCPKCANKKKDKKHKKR
Excerpt: as §1, §2, §3

BPTF PHD zinc finger = molecular target: T3, BPTF PHD zinc finger (Homo sapiens, UniProt Q12830); experiment: ITC binding to BPTF PHD zinc finger; conditions: ITC (Auto-iTC200), one set of sites; 350–600 μM 10-mer peptide into 25–40 μM protein (eluted in 50 mM Tris, 20 mM NaCl, pH 7.5); 5–7 independent experiments; stoichiometry n=0.95–1.05
T3 construct: the PHD zinc fingers of JARID1A, BPTF, TAF3 and the tudor domains of the Royal family of SGF29 and JMJD2A; made in house; host or cells: Escherichia coli Rosetta BL21 DE3 pLysS
Excerpt: as §1
(§4) Reader proteins were prepared and purified following the previously reported procedure. Briefly, the reader domains of BPTF, JMJD2A, JARID1A, TAF3 and SGF29 were expressed in Escherichia coli Rosetta BL21 DE3 pLysS hosts, using Terrific Broth medium. The bacteria were cultured to OD600 ∼0.6 at 37 °C after which they were induced with 0.5 mM isopropyl-b-D-thiogalactoside overnight at 16 °C. […]
as §3

[1] = molecular target: T4, SGF29 tandem tudor domain (Homo sapiens, UniProt Q96ES7); experiment: ITC binding to SGF29 tandem tudor domain; conditions: ITC (Auto-iTC200), one set of sites; 350–600 μM 10-mer peptide into 25–40 μM protein (eluted in 25 mM Tris, 50 mM NaCl, 1 mM dithiothreitol, pH 7.5); 5–7 independent experiments; stoichiometry n=0.95–1.05
T4 construct: 6xHis (cleaved yes); made in house; host or cells: Escherichia coli Rosetta BL21 DE3 pLysS
T4 sequence (Q96ES7 115-293): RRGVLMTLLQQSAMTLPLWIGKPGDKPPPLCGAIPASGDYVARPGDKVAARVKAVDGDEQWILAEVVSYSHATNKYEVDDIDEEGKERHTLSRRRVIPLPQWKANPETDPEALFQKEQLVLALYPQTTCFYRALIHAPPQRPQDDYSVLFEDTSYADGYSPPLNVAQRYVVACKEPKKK
Excerpt: as §1, §4, §3

JMJD2A tudor domain = molecular target: T5, JMJD2A tudor domain (Homo sapiens, UniProt O75164); experiment: ITC binding to JMJD2A tudor domain; conditions: 5–7 independent experiments
T5 construct: the PHD zinc fingers of JARID1A, BPTF, TAF3 and the tudor domains of the Royal family of SGF29 and JMJD2A; 6xHis (cleaved yes); made in house; host or cells: Escherichia coli Rosetta BL21 DE3 pLysS
T5 sequence (O75164 897-1011 limits assumed): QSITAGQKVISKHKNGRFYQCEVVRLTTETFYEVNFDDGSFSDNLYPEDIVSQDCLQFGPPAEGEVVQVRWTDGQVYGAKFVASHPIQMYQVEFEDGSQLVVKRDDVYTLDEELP
Excerpt: as §1, §4, §3

[2] = ITC (Auto-iTC200), one set of sites, 350–600 μM 10-mer peptide into 25–40 μM protein (eluted in 50 mM Tris, 20 mM NaCl, pH 7.5), 5–7 independent experiments, stoichiometry n=0.95–1.05, read-out: Kd
[3] = ITC (Auto-iTC200), one set of sites, 350–600 μM 10-mer peptide into 25–40 μM protein (eluted in 50 mM Tris, pH 7.5), stoichiometry n=0.95–1.05, read-out: Kd

Row | Compound | Kd (JARID1A PHD3 domain) [µM] | Kd (TAF3 PHD domain; ITC, 3 mM H3G4 into 200 μM TAF3) [µM] | Kd (JARID1A PHD3 domain; [2]) [µM] | Kd (TAF3 PHD domain; [3]) [µM] | Kd (BPTF PHD zinc finger) [µM] | Kd [1] [µM] | Kd (JMJD2A tudor domain; ITC, 3 mM H3C4me3 into 200 μM JMJD2A) [µM] | Kd (JMJD2A tudor domain; ITC (Auto-iTC200), one set of sites, 350–600 μM 10-mer peptide into 25–40 μM protein (eluted in 50 mM Tris, pH 7.5), stoichiometry n=0.95–1.05) [µM]
1 | C[C@H](N)C(=O)N[C@@H](CCCNC(=N)N)C(=O)N[C@H](C(=O)NCC(=O)N[C@@H](CCC(N)=O)C(=O)N[C@H](C(=O)N[C@@H](C)C(=O)N[C@@H](CCCNC(=N)N)C(=O)N[C@@H](CCCCN)C(=O)N[C@@H](CO)C(=O)O)[C@@H](C)O)[C@@H](C)O [H3G4] | 88 | 36 | – | – | – | – | – | –
2 | C[C@H](N)C(=O)N[C@@H](CCCNC(=N)N)C(=O)N[C@H](C(=O)N[C@@H](CCCCC(C)(C)C)C(=O)N[C@@H](CCC(N)=O)C(=O)N[C@H](C(=O)N[C@@H](C)C(=O)N[C@@H](CCCNC(=N)N)C(=O)N[C@@H](CCCCN)C(=O)N[C@@H](CO)C(=O)O)[C@@H](C)O)[C@@H](C)O [H3C4me3] | – | – | 0.34 | 0.79 | 0.76 | 1.4 | 16 | –
3 | C[C@H](N)C(=O)N[C@@H](CCCNC(=N)N)C(=O)N[C@H](C(=O)N[C@@H](CCCC[N+](C)(C)C)C(=O)N[C@@H](CCC(N)=O)C(=O)N[C@H](C(=O)N[C@@H](C)C(=O)N[C@@H](CCCNC(=N)N)C(=O)N[C@@H](CCCCN)C(=O)N[C@@H](CO)C(=O)O)[C@@H](C)O)[C@@H](C)O [H3K4me3] | – | – | 0.094 | 0.024 | 0.49 | 1.7 | – | 0.94
